The record followed here is PMC6290777, “Inhalation of the prodrug PI3K inhibitor CL27c improves lung function in asthma and fibrosis” (Nature Communications, 2018).

Series [1] concerns Akt phosphorylation (Ser473) in murine neutrophils. The experiment in a line: Akt phosphorylation in primary neutrophils stimulated with C5a. Particulars: C5a 25 nM. The class given is cell-based, mouse. On the procedure:
Neutrophils were obtained from bone marrow isolated from femurs and tibias of C57BL/6J mice. Isolated bone marrow cells were centrifuged 12 min at 260× g and resuspended in 2 ml of physiologic salt solution and neutrophils were subsequently isolated after centrifugation (30 min at 1100× g, 4 °C without brake) through 3 Percoll gradients (from bottom to top: solution B, 75% of a 90% Percoll and 10% HBSS stock solution; solution C, 64% of a 90% Percoll and 10% HBSS stock solution; solution D 52% of a 90% Percoll and 10% HBSS stock solution). Once collected at the interface between the solution B and solution C, the cells were washed three times with 10 ml of physiologic salt solution and centrifuged for 5 min at 260 × g, 4 °C and pretreated for 1 h with CL27c at different concentration. After stimulation with C5a protein were extracted with Laemnli buffer.
For all cell types, phosphorylated Akt (P-Akt, Ser 473, 1:100, Cell Signaling Technology #4060) production was detected by western blot analysis and quantified with ChemiDoc™ XRS system. P-Akt signals are normalized on endogenous. […] To derive the EC50, all data were plotted on a dose response curve (Graph Pad software) and the EC50 was calculated by using the non-linear regression fit (equation [log agonist] vs response–variable slope). […]
(§1) panel). […] The respective EC50 was calculated by using nonlinear

The test system of series [2] is Akt phosphorylation (Ser473) in bone marrow-derived macrophages (BMDM). The experiment in a line: Akt phosphorylation in BMDM stimulated with C5a. The class given is cell-based, mouse. As to conditions: C5a 25 nM. On the procedure:
BMDMs were obtained from bone marrows isolated from femurs and tibias of C57BL/6J mice. Bone marrow cells were cultured in a petri plate in the presence of RPMI additioned with 30% L-cell conditioned medium (supernatant of 5 days culture of L929 cells), 20% FBS and 100 μg/ml penicillin and streptomycin. After about 7 days, almost all cells became attached BMDM. BMDM were pretreated with Versene (GIBCO^TM #15040066) to detach them from the plate, washed, and placed on a 24 wells culture plate at a density of 2 × 10^5 cell/well in RPMI free medium. After 6 h of starvation, BMDMs were pretreated with CL27c at different concentrations and stimulated with C5a (25 nM, Sigma-Aldrich #SRP4895A) for 5 min. Proteins were extracted with Laemnli buffer.
For all cell types, phosphorylated Akt (P-Akt, Ser 473, 1:100, Cell Signaling Technology #4060) production was detected by western blot analysis and quantified with ChemiDoc™ XRS system. P-Akt signals are normalized on endogenous. For the calculation of EC50 values, a percentage of residual P-Akt was calculated for each inhibitor concentration by using the control vehicle as 100%. To derive the EC50, all data were plotted on a dose response curve (Graph Pad software) and the EC50 was calculated by using the non-linear regression fit (equation [log agonist] vs response–variable slope). […]
as §1

The next series deals with PBMCs. Nature of the series: PBMCs proliferation (MTT). The class given is cell-based, human. On the procedure:
PBMCs in RPMI medium were seeded in a 96-well tissue culture plates at 5 × 10^3 cells/well (Cell Star, Frickenhausen, Germany). PBMCs were activated with vehicle (PBS) or anti-CD3 (5 μg/mL) plus soluble anti-CD28 (2 μg/mL) mAbs (BD Pharmingen, San Jose, CA, USA). Then, the cells were incubated at 37 °C and 5% CO2 for 48 h. Cell proliferation was assayed by MTT (3-(4,5-dimethylthiazol-2-yl)-2,5-diphenyltetrazolium bromide) assay (Roche Life Science, Mannheim, BW, Germany) following the manufacturer’s instructions. Briefly, 10 μL of MTT (3 mg/mL) was added to each well containing cells in 100 μL medium and incubated for 2 h at 37 °C. Then, 100 μL of lysis buffer was added allowing the dissolution of formazan crystals. After 15 min at room temperature the absorbance was read at 560 nm with reference of 690 nm using GloMax®-Multi Microplate Multimode Reader (Promega, Madison, Wisconsin, EUA).

A short description of series [3]: Microsomial stability, human. Format: in vitro ADME. Particulars: human liver microsomes, NADPH. The protocol:
To define whether this prodrug was suitable for inhaled administration, CL27c was studied to evaluate selected ADME (absorption, distribution, metabolism, and excretion) and pharmacokinetic properties. First, stability of CL27c and CL27e was analyzed in mouse plasma (Supplementary Table 1) and in mouse, rat, and human liver microsomes in the presence of nicotinamide adenine dinucleotide phosphate (NADPH; Supplementary Table 2). Next, clearance of CL27c was analyzed in C57BL/6J mice after either intra-venous or oral administration. […] Clearance of CL27c and CL27e after oral administration could not be determined due to their low bioavailability (Supplementary Table 3). Next, pharmacokinetics after inhalation was studied in C57BL/6J mice after delivering an aerosolized micro-suspension of CL27c. As shown in Table 1 and Supplementary Fig. 1b, CL27c dose-dependently reached the lungs and its metabolite CL27e was detectable after inhalation of the highest dose. […] Therefore, the inhaled prodrug promotes local effects but prevents systemic absorption of pharmacologically relevant amounts of the active compound. […]
All tests for the microsomial stability of CL27c were conducted by the Istituto di Ricerche Biomediche (RBM) SpA – Merck Serono, Ivrea, Italy. […]
Then, cells […]
pretreated with different doses of CL27c were incubated at 37°C and 5% CO 2 for 10 minutes. […]
Background: Liver microsomes are a subcellular fraction often used to study metabolism.

Molecules are shown by their SMILES.

With `COC(=O)c1cccc(Cn2cc(-c3cccc4c(=O)cc(N5CCOCC5)[nH]c34)nn2)c1` [CL27c], the Akt/PKB phosphorylation entry in series [1] was “readily reduced Akt/PKB phosphorylation”. Moreover, the Akt/PKB phosphorylation result in series [2] is listed as “readily reduced Akt/PKB phosphorylation”. Further, the “anti-proliferative effect on PBMC relative to dexamethasone” value with PBMCs (CL27c 5 μM) is listed as “comparable to the reference compound dexamethasone”. Further, the “proliferation of PBMC” value in the series with PBMCs (stimulated with antibodies against CD28, CL27c 0.5 and 5 µM, concentration-dependent) is “block proliferation”. Also, in series [3], the “Clint (intrinsic clearance)” value was 0.1 ± 0.03 ml/min/mg prot and the t1/2 worked out at 10.2 ± 2.2 min.
